Measured values as given in ChEMBL document CHEMBL1909046, “DrugMatrix in vitro pharmacology data”.

Key:
[1] = molecular target: T1, Polyunsaturated fatty acid lipoxygenase ALOX15 (Oryctolagus cuniculus, UniProt P12530); assay: biochemical; format: tissue-based, Reticulocytes;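 note: inhibition of 15-lipoxygenase enzyme activity measured with linoleic acid as the substrate; in other assays of this panel Not Active means under 50% inhibition at 10 µM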
T1 sequence (P12530 whole entry): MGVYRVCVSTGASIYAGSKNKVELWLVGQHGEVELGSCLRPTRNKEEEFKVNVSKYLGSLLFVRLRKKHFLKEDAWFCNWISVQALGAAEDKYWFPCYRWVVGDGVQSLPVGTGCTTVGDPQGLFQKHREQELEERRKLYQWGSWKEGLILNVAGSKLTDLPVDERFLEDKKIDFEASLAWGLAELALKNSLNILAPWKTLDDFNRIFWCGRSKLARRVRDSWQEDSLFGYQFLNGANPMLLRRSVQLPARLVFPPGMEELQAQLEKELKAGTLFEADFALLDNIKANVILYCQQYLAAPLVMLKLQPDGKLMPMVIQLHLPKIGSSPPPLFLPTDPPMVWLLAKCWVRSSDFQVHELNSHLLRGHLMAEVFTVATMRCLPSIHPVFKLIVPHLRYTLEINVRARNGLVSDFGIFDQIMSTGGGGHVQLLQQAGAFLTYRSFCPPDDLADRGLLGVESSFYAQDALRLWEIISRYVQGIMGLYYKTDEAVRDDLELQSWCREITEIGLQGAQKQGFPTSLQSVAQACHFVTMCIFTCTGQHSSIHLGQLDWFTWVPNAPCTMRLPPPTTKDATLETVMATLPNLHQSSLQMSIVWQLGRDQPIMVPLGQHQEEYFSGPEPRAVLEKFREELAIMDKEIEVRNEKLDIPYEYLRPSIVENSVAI

Insulin receptor = Insulin receptor (Rattus norvegicus, UniProt P15127); format: cell membranes, Wistar, Liver, Membrane; note: in other assays of this panel Not Active means under 50% inhibition at 10 µM
[2] = molecular target: Sodium-dependent dopamine transporter (Homo sapiens, UniProt Q01959); assay: DRUGMATRIX: Dopamine Transporter radioligand binding (ligand: [125I] RTI-55); format: cell membranes, CHO-K1, Membrane; settings: cho-k1; Not Active = under 50% inhibition at 10 µM
[3] = molecular target: Mitogen-activated protein kinase 1 (Homo sapiens, UniProt P28482); assay: DRUGMATRIX: Protein Serine/Threonine Kinase, ERK2 enzyme inhibition (substrate: Myelin Basic Protein); set-up: species or system Escherichia coli; settings: Not Active = under 50% inhibition at 10 µM
[4] = molecular target: Prostaglandin G/H synthase 1 (Homo sapiens, UniProt P23219); assay: biochemical; format: tissue-based, Platelet;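 note: inhibition of COX-1 enzyme activity, with arachidonic acid supplied as substrate; in other assays of this panel Not Active means under 50% inhibition at 10 µM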
Thromboxane-A synthase = molecular target: T2, Thromboxane-A synthase (Homo sapiens, UniProt P24557); assay: biochemical; format: tissue-based, Platelet; settings: platelet;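 note: enzyme inhibition assay with PGH2 supplied as substrate; in other assays of this panel Not Active means under 50% inhibition at 10 µM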
T2 sequence (P24557 whole entry): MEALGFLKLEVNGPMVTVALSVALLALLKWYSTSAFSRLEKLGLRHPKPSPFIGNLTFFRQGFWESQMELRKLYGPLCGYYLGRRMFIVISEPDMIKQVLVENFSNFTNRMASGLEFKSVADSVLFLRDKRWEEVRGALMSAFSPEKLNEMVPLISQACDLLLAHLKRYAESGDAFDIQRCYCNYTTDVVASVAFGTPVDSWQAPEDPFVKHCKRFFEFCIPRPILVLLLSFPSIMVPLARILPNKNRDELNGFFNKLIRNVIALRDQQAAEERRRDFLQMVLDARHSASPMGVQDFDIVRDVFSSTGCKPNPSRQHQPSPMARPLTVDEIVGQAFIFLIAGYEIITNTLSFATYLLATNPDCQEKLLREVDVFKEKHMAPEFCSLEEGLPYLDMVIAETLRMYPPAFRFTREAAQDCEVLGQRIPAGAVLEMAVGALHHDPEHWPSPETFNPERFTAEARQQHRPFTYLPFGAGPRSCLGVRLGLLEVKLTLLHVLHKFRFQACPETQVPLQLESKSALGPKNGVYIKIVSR

Prostaglandin G/H synthase 1, sequence (P23219 whole entry): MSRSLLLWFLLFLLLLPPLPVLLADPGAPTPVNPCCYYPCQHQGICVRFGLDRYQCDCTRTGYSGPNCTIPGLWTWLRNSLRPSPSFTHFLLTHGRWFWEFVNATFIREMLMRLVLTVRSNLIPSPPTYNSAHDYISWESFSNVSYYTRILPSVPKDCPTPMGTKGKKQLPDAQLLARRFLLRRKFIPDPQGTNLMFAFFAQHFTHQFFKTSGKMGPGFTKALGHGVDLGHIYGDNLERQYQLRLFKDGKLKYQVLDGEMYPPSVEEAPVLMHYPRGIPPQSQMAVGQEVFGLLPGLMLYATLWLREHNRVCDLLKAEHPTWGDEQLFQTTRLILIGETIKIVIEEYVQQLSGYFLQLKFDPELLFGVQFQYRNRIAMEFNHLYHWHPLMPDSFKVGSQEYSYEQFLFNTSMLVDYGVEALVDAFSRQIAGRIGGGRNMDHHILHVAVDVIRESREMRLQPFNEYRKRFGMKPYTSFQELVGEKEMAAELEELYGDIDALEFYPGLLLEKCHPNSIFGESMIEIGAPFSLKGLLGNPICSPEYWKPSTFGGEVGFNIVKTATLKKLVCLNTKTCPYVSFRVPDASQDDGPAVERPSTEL
Mitogen-activated protein kinase 1, sequence (P28482 whole entry): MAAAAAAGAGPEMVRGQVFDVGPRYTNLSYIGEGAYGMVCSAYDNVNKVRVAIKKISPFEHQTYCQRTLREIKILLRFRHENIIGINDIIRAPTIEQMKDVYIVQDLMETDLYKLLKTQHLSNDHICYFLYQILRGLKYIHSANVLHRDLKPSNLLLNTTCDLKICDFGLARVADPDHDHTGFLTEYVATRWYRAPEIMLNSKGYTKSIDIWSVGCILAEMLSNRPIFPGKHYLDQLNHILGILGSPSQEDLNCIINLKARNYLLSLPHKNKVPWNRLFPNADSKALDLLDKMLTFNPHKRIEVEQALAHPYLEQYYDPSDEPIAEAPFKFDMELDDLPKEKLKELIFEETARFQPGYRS
Sodium-dependent dopamine transporter, sequence (Q01959 whole entry): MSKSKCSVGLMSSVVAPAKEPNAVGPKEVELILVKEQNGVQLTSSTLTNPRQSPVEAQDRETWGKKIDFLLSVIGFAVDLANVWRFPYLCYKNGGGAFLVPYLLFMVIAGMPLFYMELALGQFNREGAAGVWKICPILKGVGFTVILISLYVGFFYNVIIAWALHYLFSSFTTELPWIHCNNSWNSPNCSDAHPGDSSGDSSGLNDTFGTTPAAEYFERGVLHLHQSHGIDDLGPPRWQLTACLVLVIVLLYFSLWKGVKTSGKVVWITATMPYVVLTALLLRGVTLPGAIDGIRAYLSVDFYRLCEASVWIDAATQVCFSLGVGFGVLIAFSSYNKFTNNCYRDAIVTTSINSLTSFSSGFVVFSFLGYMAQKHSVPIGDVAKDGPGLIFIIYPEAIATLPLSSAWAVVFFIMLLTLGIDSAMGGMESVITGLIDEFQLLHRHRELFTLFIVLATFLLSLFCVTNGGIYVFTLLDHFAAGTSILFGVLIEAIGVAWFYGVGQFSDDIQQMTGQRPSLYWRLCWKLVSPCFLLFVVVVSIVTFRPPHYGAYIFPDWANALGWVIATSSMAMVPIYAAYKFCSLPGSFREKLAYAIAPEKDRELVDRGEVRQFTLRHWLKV
Insulin receptor, sequence (P15127 27-759 limits assumed): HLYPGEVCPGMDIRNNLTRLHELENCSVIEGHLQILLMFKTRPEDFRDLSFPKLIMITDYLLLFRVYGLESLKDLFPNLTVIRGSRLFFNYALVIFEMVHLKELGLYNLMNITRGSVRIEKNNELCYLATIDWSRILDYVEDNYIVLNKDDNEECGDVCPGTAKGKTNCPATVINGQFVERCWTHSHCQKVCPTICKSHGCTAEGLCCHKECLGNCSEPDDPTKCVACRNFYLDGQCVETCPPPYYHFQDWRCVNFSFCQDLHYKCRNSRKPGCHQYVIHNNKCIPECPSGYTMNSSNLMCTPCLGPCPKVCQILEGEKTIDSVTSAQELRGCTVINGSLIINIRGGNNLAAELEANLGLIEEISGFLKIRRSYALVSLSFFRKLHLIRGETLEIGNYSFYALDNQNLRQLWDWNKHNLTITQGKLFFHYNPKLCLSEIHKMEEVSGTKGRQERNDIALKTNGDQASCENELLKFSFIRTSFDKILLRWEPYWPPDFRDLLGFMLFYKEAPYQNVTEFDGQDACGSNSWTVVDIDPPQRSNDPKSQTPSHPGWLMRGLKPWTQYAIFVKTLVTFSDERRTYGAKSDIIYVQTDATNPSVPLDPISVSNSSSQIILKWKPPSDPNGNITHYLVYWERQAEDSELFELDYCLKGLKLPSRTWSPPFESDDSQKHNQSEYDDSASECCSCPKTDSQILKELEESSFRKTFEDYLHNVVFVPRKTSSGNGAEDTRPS
Insulin receptor, sequence (P15127 764-1383 limits assumed): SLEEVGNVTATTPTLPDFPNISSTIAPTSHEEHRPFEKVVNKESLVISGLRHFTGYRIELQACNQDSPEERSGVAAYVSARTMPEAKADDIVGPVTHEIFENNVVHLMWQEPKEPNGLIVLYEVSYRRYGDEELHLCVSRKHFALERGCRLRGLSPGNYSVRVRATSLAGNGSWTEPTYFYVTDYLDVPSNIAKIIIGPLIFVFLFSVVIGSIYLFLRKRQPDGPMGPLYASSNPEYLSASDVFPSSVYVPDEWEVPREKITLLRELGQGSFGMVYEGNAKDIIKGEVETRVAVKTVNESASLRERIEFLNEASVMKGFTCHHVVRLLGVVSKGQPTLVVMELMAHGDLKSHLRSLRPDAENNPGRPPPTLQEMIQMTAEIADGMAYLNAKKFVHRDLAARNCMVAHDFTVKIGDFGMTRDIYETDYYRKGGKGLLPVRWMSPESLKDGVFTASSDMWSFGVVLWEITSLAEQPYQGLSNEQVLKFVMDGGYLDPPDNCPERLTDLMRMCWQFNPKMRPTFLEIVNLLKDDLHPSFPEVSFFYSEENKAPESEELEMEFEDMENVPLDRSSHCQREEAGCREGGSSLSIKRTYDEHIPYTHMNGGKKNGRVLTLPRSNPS

SMILES	IC50 ([1]; reticulocytes)	IC50 (Insulin receptor)	IC50 [2]	IC50 [3]	IC50 ([4]; platelet)	IC50 (Thromboxane-A synthase)	IC50 ([3]; read-out: IC50) [nM]	Ki ([1]; reticulocytes)	IC50 ([4]; read-out: IC50) [nM]	IC50 ([1]; read-out: IC50) [nM]
Nn1nnc2ccccc21	Not Active	Not Active	Not Active	Not Active	Not Active	Not Active	–	–	–	–
CC[C@]1(O)CC[C@H]2[C@@H]3CCC4=CCCC[C@@H]4[C@H]3CC[C@@]21C	Not Active	Not Active	Not Active	Not Active	Not Active	Not Active	–	–	–	–
N[C@@H](Cc1ccc(F)cc1)C(=O)O	Not Active	Not Active	Not Active	Not Active	Not Active	Not Active	–	–	–	–
CCOC(=O)[C@H](CCc1ccccc1)N[C@@H](C)C(=O)N1Cc2ccccc2C[C@H]1C(=O)O	Not Active	Not Active	Not Active	Not Active	Not Active	Not Active	–	–	–	–
O=C(c1ccccc1Cl)N1CCC(Cc2ccccc2)CC1	Not Active	Not Active	Not Active	Not Active	Not Active	Not Active	–	–	–	–
CCOC(=O)[C@H](CCc1ccccc1)N[C@@H](C)C(=O)N1CCC[C@H]1C(=O)O	Not Active	Not Active	Not Active	Not Active	Not Active	Not Active	–	–	–	–
Clc1cc2c(cc1Cl)Oc1cc(Cl)c(Cl)cc1O2 [2,3,7,8-TETRACHLORODIBENZO-P-DIOXIN]	Not Active	Not Active	Not Active	Not Active	Not Active	Not Active	–	–	–	–
C=C1/C(=C\C=C2/CCC[C@]3(C)[C@@H]([C@H](C)CCCC(C)C)CC[C@@H]23)C[C@@H](O)C[C@@H]1O [ALFACALCIDOL]	Not Active	Not Active	Not Active	Not Active	Not Active	Not Active	–	–	–	–
CCCCCC[C@H]1C(=O)O[C@H](C)[C@H](NC(=O)c2cccc(NC=O)c2O)C(=O)O[C@@H](C)[C@@H]1OC(=O)CC(C)C [ANTIMYCIN A]	Not Active	Not Active	Not Active	–	Not Active	Not Active	2120	–	–	–
C[C@@H]1CC[C@H]2[C@@H](C)C(=O)O[C@@H]3O[C@@]4(C)CC[C@@H]1[C@]32OO4 [ARTEMISININ]	Not Active	Not Active	Not Active	Not Active	Not Active	Not Active	–	–	–	–
CO[C@H]1[C@@H](O)[C@H](N)[C@@H](O[C@H]2O[C@H]([C@H](C)N)CC[C@H]2N)[C@H](O)[C@@H]1N(C)C(=O)CN [ASTROMICIN]	Not Active	Not Active	Not Active	Not Active	Not Active	Not Active	–	–	–	–
[N-]=[N+]=CC(=O)OC[C@H](N)C(=O)O [AZASERINE]	Not Active	Not Active	Not Active	Not Active	Not Active	Not Active	–	–	–	–
CC[C@H]1OC(=O)[C@H](C)[C@@H](O[C@H]2C[C@@](C)(OC)[C@@H](O)[C@H](C)O2)[C@H](C)[C@@H](O[C@@H]2O[C@H](C)C[C@H](N(C)C)[C@H]2O)[C@](C)(O)C[C@@H](C)CN(C)[C@H](C)[C@@H](O)[C@]1(C)O [AZITHROMYCIN]	Not Active	Not Active	Not Active	Not Active	Not Active	Not Active	–	–	–	–
CC(C)(C)c1ccc(S(=O)(=O)/C=C/C#N)cc1 [BAY-11-7085]	Not Active	Not Active	Not Active	Not Active	Not Active	Not Active	–	–	–	–
CCc1oc2ccccc2c1C(=O)c1cc(Br)c(O)c(Br)c1 [BENZBROMARONE]	–	Not Active	Not Active	–	Not Active	Not Active	1950	Not Active	–	–
O=c1cc(-c2ccccc2)oc2ccc3ccccc3c12 [BETA-NAPHTHOFLAVONE]	Not Active	Not Active	Not Active	Not Active	Not Active	Not Active	–	–	–	–

SMILES	IC50 ([1]; reticulocytes)	IC50 (Insulin receptor)	IC50 [2]	IC50 [3]	IC50 ([4]; platelet)	IC50 (Thromboxane-A synthase)	IC50 ([3]; read-out: IC50) [nM]	Ki ([1]; reticulocytes)	IC50 ([4]; read-out: IC50) [nM]	IC50 ([1]; read-out: IC50) [nM]
CC(C)C[C@H]1C(=O)N2CCC[C@H]2[C@]2(O)O[C@](NC(=O)[C@@H]3C=C4c5cccc6[nH]c(Br)c(c56)C[C@H]4N(C)C3)(C(C)C)C(=O)N12 [BROMOCRIPTINE]	Not Active	Not Active	Not Active	Not Active	Not Active	Not Active	–	–	–	–
CS(=O)(=O)OCCCCOS(C)(=O)=O [BUSULFAN]	Not Active	Not Active	Not Active	Not Active	Not Active	Not Active	–	–	–	–
O=C(/C=C/c1ccc(O)c(O)c1)OCCc1ccccc1 [CAFFEIC ACID PHENETHYL ESTER]	Not Active	Not Active	Not Active	–	–	Not Active	686	–	833	–
COc1cc(CNC(=O)CCCC/C=C/C(C)C)ccc1O [CAPSAICIN]	Not Active	Not Active	Not Active	Not Active	–	Not Active	–	–	1550	–
NC(=O)N1c2ccccc2C=Cc2ccccc21 [CARBAMAZEPINE]	Not Active	Not Active	Not Active	Not Active	Not Active	Not Active	–	–	–	–
CCOC(=O)n1ccn(C)c1=S [CARBIMAZOLE]	Not Active	Not Active	Not Active	Not Active	Not Active	Not Active	–	–	–	–
Oc1ccccc1O [CATECHOL]	–	Not Active	Not Active	Not Active	Not Active	Not Active	–	–	–	868
CO[C@@]1(NC(=O)CSCC#N)C(=O)N2C(C(=O)O)=C(CSc3nnnn3C)CS[C@@H]21 [CEFMETAZOLE]	Not Active	Not Active	Not Active	Not Active	Not Active	Not Active	–	–	–	–
CN(C(=O)CCCOc1ccc2[nH]c(=O)ccc2c1)C1CCCCC1 [CILOSTAMIDE]	Not Active	Not Active	Not Active	Not Active	Not Active	Not Active	–	–	–	–
CC(C)(Oc1ccc(C2CC2(Cl)Cl)cc1)C(=O)O (configuration not stated) [CIPROFIBRATE]	Not Active	Not Active	Not Active	Not Active	Not Active	Not Active	–	–	–	–
Nc1nc(Cl)nc2c1ncn2[C@H]1C[C@H](O)[C@@H](CO)O1 [CLADRIBINE]	Not Active	Not Active	Not Active	Not Active	Not Active	Not Active	–	–	–	–
C[C@H](C(=O)O)c1cccc(C(=O)c2ccccc2)c1 [DEXKETOPROFEN]	Not Active	Not Active	Not Active	Not Active	–	Not Active	–	–	–	–
Cc1c(N(C)CS(=O)(=O)[O-])c(=O)n(-c2ccccc2)n1C.[Na+] [DIPYRONE SODIUM]	Not Active	Not Active	Not Active	–	Not Active	Not Active	–	–	–	–
CC(C(=O)O)c1ccc(-c2ccccc2)c(F)c1 (configuration not stated) [FLURBIPROFEN]	Not Active	Not Active	Not Active	Not Active	–	Not Active	–	–	–	–
Cc1cnc(C(=O)NCCc2ccc(S(=O)(=O)NC(=O)NC3CCCCC3)cc2)cn1 [GLIPIZIDE]	Not Active	Not Active	Not Active	–	Not Active	Not Active	–	–	–	–
